Measurements taken from patent US20050245540A1, “New methods” (FUJISAWA PHARMACEUTICAL CO., LTD., priority 2003, published 2005).
Structures can show the parent of a compound that is named as a salt.

Key:
[1] = tested on: calvaria from 5-day-old ICR mice; test: Assay using mouse calvarial organ culture (calvaria bone formation assay); assay type: cell-based; details: test compound 1.0 × 10^−5 M added in combination with TGF-beta1; new bone area by histomorphometry after 1 week culture
Experimental: Assay using Mouse Calvarial Organ Culture
Calvaria bone formation assay was essentially performed as described by Bonewald et al. (Endocrinology 139:3178, 1998). The calvaria from 5-day-old ICR mice were excised and cut in half along the sagittal suture. Each half of the calvaria was placed on a stainless steel grid in a 12-well tissue culture dish. Each well contained BGJ media (Sigma) supplemented with 0.1% bovine serum albumine, to which the test compound was added in combination with TGF-beta1. The media was changed 24 and 96 hrs. Calvaria were maintained in humidified air (5% CO2) at 37° C. for 1 week. The calvaria were then fixed overnight in formalin, decalcified in EDTA, and were then embedded in paraffin wax. Calvaria sections were stained with hematoxylin and eosin. Histomorphometric analysis was performed using the Image-pro Plus (Trade mark, Media Cybernetics). The sum of the new bone area was determined. Rate of increase was calculated in the following; [formula] • Calvaria area is calculated using Histomorphometric analysis. • Ats: Score of area in case of addition of test compound and TGF beta1 • Atg: Score of area in case of addition of TGF beta1 • Ac: Score of area in case of no addition (Control)

Cc1ccc(Cn2cc(C3CCNCC3)c3ccccc32)cc1C [9-(5)]
Rate of increase [1]: 180%

COC(=O)c1cccc(Cn2cc(C3CCNCC3)c3ccccc32)c1 [9-(18)]
Rate of increase [1]: 158%

CC(C)(C)OC(=O)NCCCCCCCN1CCC(c2c[nH]c3ccc(O)cc23)CC1 [40-(3), 3-[1-(7-tert-butoxycarbonylaminoheptyl)-4-piperidinyl]-5-hydroxy-1H-indole]
Rate of increase [1]: 140%

COc1ccc(Cn2cc(C3CCN(C(=O)OC(C)(C)C)CC3)c3ccc(C#N)cc32)cc1Cl [46-(4)]
Rate of increase [1]: 203%

COc1ccc(Cn2cc(C3CCNCC3)c3ccc(C#N)cc32)cc1Cl.Cl [49-(6), 1-(3-Chloro-4-methoxybenzyl)-6-cyano-3-(4-piperidinyl)-1H-indole hydrochloride]
Rate of increase [1]: 112%

CC(C)(C)OC(=O)N1CCC(c2c[nH]c3ccccc23)CC1 [Example 1, tert-butyl 4-(1H-indol-3-yl)-1-piperidinecarboxylate]
melting point: 159 to 160 °C

CC(C)(C)OC(=O)N1CCC(c2cn(S(C)(=O)=O)c3ccccc23)CC1 [Example 4, tert-butyl 4-[1-(methylsulfonyl)-1H-indol-3-yl]-1-piperidinecarboxylate]
melting point: 136 to 137 °C

CS(=O)(=O)c1ccc(Cn2cc(C3CCNCC3)c3ccccc32)cc1 [Example 7, 1-[4-(methylsulfonyl)benzyl]-3-(4-piperidinyl)-1H-indole hydrochloride]
Rate of increase [1]: 206%
